# Literature values in patent US20040039052A1, “Urinary incontinence therapy” (priority 1997, published 2004).
# How the values were obtained:
# [1] = test system: patients with detrusor hyperreflexia (DH); conditions: intravesical instillation; cited from earlier work
# [2] = test system: bladder afferents; conditions: rats; intravesicular 10-100 μmol; cited from earlier work
# [3] = test system: vanilloid receptor-mediated release of tachykinins in the rat urinary bladder; conditions: rats with experimentally induced hypertrophy; cited from earlier work
structure (smiles),measurement,setting,value
"COc1cc(CNC(=O)CCCC/C=C/C(C)C)ccc1O [CAP, capsaicin, reference compound]",period after treatment when symptoms deteriorate,[1],2 to 4 days
same,tolerability upon instillation,[1],intense burning and pain in the lower abdomen upon instillation
same,desensitization of bladder afferents,[2],long-lasting desensitization of bladder afferents
same,reducing symptoms in rats having an experimentally induced hypertrophy,[3],effective in reducing symptoms
